≈ marks a conversion by molar mass, not a printed value.
What was measured:
[1] = test system: S. aureus ATCC 10390; test: MIC determination with authentic compounds resynthesized in solution; type: cell-based, Staphylococcus aureus; conditions: Staphylococcus aureus, ATCC10390
Experimental: (§1) For estimated MIC determination, DMSO was added to the dried compound residue obtained from a single spot to afford ca. 100 μL of a 2 mM stock solution. Aliquots (5 μL) of these solutions were added to a 96-well plate, followed by 195 μL of diluted S. aureus 10390 (10^6 CFUs/mL) to yield ca. 50 μM final concentrations. The plates were swirled for 1 h to ensure compound dissolution, incubated for 12 h at 37° C., and the absorbance at 595 nm was recorded using a plate reader. […] Actual MIC values were determined for lead compounds resynthesized in solution using an analogous procedure with solutions of known concentration (see).
(§2) Dose response growth inhibition curves were determined for each active compound (resynthesized in solution) against S. aureus 10390 (SA) and methicillin-resistant S. aureus 33591 (MRSA). […] MIC assays were performed in quadruplicate.

[2] = test system: S. aureus ATCC 10390; test: Estimated MIC, solution-phase microdilution absorbance assay with crude macroarray spot stock solutions; type: cell-based, Staphylococcus aureus; conditions: Staphylococcus aureus, ATCC10390, 12 h
Experimental: Spots from a new 69 member chalcone macroarray as well as the three heterocyclic macroarrays prepared earlier were punched out, cleaved, and eluted with acetonitrile. The resulting solutions were concentrated to a residue that was taken up in DMSO to form 2 mM stock solutions.
From the stock solutions, microdilution assays in a 96 well plate starting at 50 μM were performed in quadruplicate. Each well contained 5 μL of the stock solution as well as 195 μL of a S. aureus culture. The turbidity of each well was measured after incubating 12 hours using a standard plate reader. Active compounds can be further diluted and the assay repeated.
To acquire more quantitative antibacterial activity data about our compounds and verify our on-support assay results, we performed solution-phase absorbance assays that provided estimates of the minimum inhibitory concentration (MIC) of each macroarray member against S. aureus. Stock solutions (ca. 2 mM) were generated by cleaving and eluting 198 individual compounds from chalcone (3) and heterocyclic macroarrays (5, 7, and 8). […] The good overall purities of the crude macroarray compounds allowed for reasonable estimations of MICs.
as §1
Preparation of spot samples and controls. An aliquot of DMSO (ca. 100 μL depending on the loading of the parent hydroxyacetophenone) was added to the dried compound residue obtained after TFA cleavage and elution from a single spot. This afforded a 2.0 mM “spot stock” solution for each spot. A small aliquot of each “spot stock” solution was saved for subsequent LC-MS analysis.
For estimated MIC screens, 5.0 μL portions of the “spot stock” solutions were added to the appropriate wells in a sterile, polystyrene 96-well plate to yield ca. 50 μM solutions (dependent on the initial loading of hydroxyacetopheneone and compound purity). To the positive and negative control wells, 5.0 μL of DMSO were added (positive controls contained bacteria but no compound, while negative controls had neither compound nor bacteria). All estimated MIC assays were performed in quadruplicate. Note: the MIC value is defined as the lowest concentration where no bacterial growth occurs.
Representative estimated MIC assay procedure. This assay procedure is based in part on the method reported by Strøm et al.^xiii A 400 μL portion of overnight S. aureus 10390 culture was diluted with 100 mL of sterile LB broth to give ca. 10^6 CFUs per mL. Aliquots (195 μL) of this solution were added to all of the wells in a sterile 96-well plate (except for the negative control wells; 195 μL of sterile LB broth were added to these wells). The plates were placed on an orbital shaker table and gently swirled for 1 h to ensure compound dissolution, and then incubated (without shaking) for 12 h at 37° C. The absorbance at 595 nm was recorded using a plate reader.
The original “spot stock” solutions of these compounds were diluted with DMSO to give ca. 25 and 13 μM final concentrations and tested for inhibitory activities using the procedure described above.

[3] = test system: K. pneumoniae; test: Agar overlay TTC assay, compound overlays; type: cell-based, Klebsiella pneumoniae; conditions: 30 nanomole aliquots of purified compound on filter paper
[4] = test system: B. subtilis subsp. spizizenii ATCC 6633; test: MIC determination, species selectivity; type: cell-based; conditions: Bacillus subtilis, ATCC6633; authentic sample, only trans isomers of chalcones; error reflects step size
Experimental: (§3) Each compound from Table 3 was tested for inhibitory activity at 2.5, 5, 7.5, 10, 15, 20, 25, and 30 μM in the susceptible overlaid strains: B. subtilis ATCC 6633, S. epidermidis ATCC 12228, and K. pneumoniae ATCC 4352. MIC assays were run in quadruplicate as described above (with shaking).

[5] = test system: S. epidermidis ATCC 12228; test: MIC determination, species selectivity; type: cell-based; conditions: Staphylococcus epidermidis, ATCC12228; authentic sample, only trans isomers of chalcones; error reflects step size
Experimental: as §3

[6] = test system: K. pneumoniae ATCC 4352; test: MIC determination, species selectivity; type: cell-based; conditions: Klebsiella pneumoniae, ATCC4352; authentic sample, only trans isomers of chalcones; error reflects step size
Experimental: as §3

[7] = test system: S. aureus ATCC 10390; test: Kirby-Bauer disk diffusion assay on compound spots from cleaved macroarray; type: cell-based, Staphylococcus aureus; conditions: loadings 30 μg/spot, 18 h incubation
Experimental: While the heterocyclic libraries were being synthesized, the chalcone macroarrays were analyzed using various direct assay techniques such as the Kirby-Bauer disk diffusion assay (FIG. 2E). Bauer, A. W.; Kirby, […].; Turck, M. Technical Bulletin of the Registry of Medical Technologists 1966, 36, 49-52. For this assay, the macroarray members are punched out from the membrane, cleaved from the support with TFA vapor, neutralized with ammonia vapor, and then placed on an agar bed inoculated with S. aureus. After incubating overnight, different diameters of zones of inhibition are measured as a factor of potency as well as solubility in the medium. Ammonia vapor neutralization was key in the disk diffusion assay, otherwise residual TFA vapor created a false positive signature. However, in this method, macroarrays have to be made in triplicate one for a replicate and one for compound characterization. We first evaluated test chalcone macroarrays (3) in antibacterial assays against S. aureus. Because the macroarrays were prepared on cellulose filter paper, we had convenient access to the compounds in disk form for standard disk diffusion assays. Compound spots were punched out of the macroarrays, subjected to vapor phase cleavage with acid (TFA), and neutralized (NH3) to afford disks containing ca. 30 μg of adsorbed compound [8]. These disks were manually placed on lawns of S. aureus, and zones of inhibition were measured after an 18 h incubation period. […] However, this antibacterial assay format had drawbacks: (1) the entire sample of compound was consumed during the assay, and thus replicate arrays needed to be synthesized to confirm activity, and (2) manipulating large numbers of compound disks was relatively labor intensive. Compound spots were cleaved with TFA and neutralized with NH3 as described herein. […] Compound spots were placed onto the agar, the plate was incubated at 37° C. for 18 h, and the diameters of the zones of inhibition were measured. […] Compound spots were subjected to the TFA cleavage conditions described above. The spots were next subjected to NH3 vapor to neutralize any remaining TFA. […] Vials containing the spots (or intact macroarrays) were placed inside a small evaporating dish, and this was placed into the NH4OH solution. The Pyrex dish was covered, and NH3 vapor was allowed to slowly diffuse into the vials. After 1 h, the vials were removed from the NH3 chamber, and the spots were allowed to stand open in a fume hood for at least 15 min to vent prior to analysis in the following assays. This afforded dry, paper disks containing adsorbed compound. […] The plates were removed, and the diameters of the zones of inhibition were measured in mm using a ruler (see FIG. 1A).

[8] = test system: Methicillin-resistant S. aureus ATCC 33591 (MRSA); test: MIC determination with authentic compounds resynthesized in solution; type: cell-based; conditions: Staphylococcus aureus; Table 3; authentic sample, only trans isomers of chalcones; error reflects step size in the serial dilutions
Experimental: as §1, §2

[9] = test system: S. aureus ATCC 10390; test: Agar overlay TTC assay; type: cell-based, Staphylococcus aureus; conditions: methicillin susceptibility disk 10 μg, agar overlay TTC assay, 18 h
Source text: To take advantage of the spatially-addressed nature of the macroarray format, an agar overlay assay was employed that utilizes TTC (triphenyl tetrazolium chloride) as a visualization agent (FIG. 2[…].; Lu, A. T.; Solas, D. W.; Gore, […].; Coffin, […].; Wang, […].; Look, G. C.; Campbell, […]. Antimicrob. Agents Chemother. 1998, 1447-1453. Unfortunately, during macroarray synthesis the planarity of the support is not fully maintained, and small wrinkles develop in this particular assay. This problem was solved by using an adaptation of the common Western Blot technique to copy the macroarray members from the support to fresh wrinkle-free sheets while maintaining the spatially-addressed nature. This transfer can be completed in 90 seconds and four copies can be made at a time, however to date, it is applicable only for smaller macroarrays (6 cm×6 cm, 16 spots). The full macroarray was easily divided into these dimensions. The copies allowed for replicates to be made, and the original, which cannot be used in the assay, is used to validate the compounds by LCMS. As an added feature, the sensitivity of the assay was tuned by simply changing the amount of agar applied to the array. The copies generated in the assay can also be easily used to screened against multiple organisms. […] This assay format also took advantage of the spatially addressed nature of the arrays (FIG. 2C). […]

[10] = Table 2, authentic sample synthesized according to standard techniques, read-out: observed MIC
[11] = Table 3, authentic sample, only trans isomers of chalcones, error reflects step size in the serial dilutions, read-out: S. aureus MIC
[12] = Table 2, serial dilution of stock solutions obtained by SPOT-synthesis, read-out: estimated MIC range
[13] = Table 3, serial dilution of spot stock solutions of crude macroarray compounds, read-out: S. aureus Estimated MIC range

Row | Structure (SMILES) | MIC [1, 10] | MIC [1, 11] | MIC [2, 12] | MIC [2, 13] | susceptibility in agar overlay TTC assay [3] | MIC [4] | MIC [5] | MIC [6] | Zones of inhibition [7] | MIC [8] | Zone of inhibition [9]
1 | O=C(/C=C/c1cccc(Cl)c1Cl)c1cccc(O)c1 [Compound 4Bl, 2,3-dichloro-3′-hydroxychalcone] | 13.8 ± 1.2 µM (≈ 4.05 µg/mL) | 15 ± 0.5 µM (≈ 4.4 µg/mL) | 12.5 to 25 µM (≈ 3.66 to 7.33 µg/mL) | 12.5 to 25 µM (≈ 3.66 to 7.33 µg/mL) | weakly susceptible | 22.5 ± 2.5 µM (≈ 6.6 µg/mL) | 12.5 ± 2.5 µM (≈ 3.66 µg/mL) | > 250 µM | 19 mm | 15 ± 0.5 µM (≈ 4.4 µg/mL) | –
2 | O=C(/C=C/c1cccc(Br)c1)c1cccc(O)c1 [Compound 4Be, 3-bromo-3′-hydroxychalcone] | 24 ± 2 µM (≈ 7.28 µg/mL) | 21 ± 1 µM (≈ 6.37 µg/mL) | 25 to 50 µM (≈ 7.58 to 15.2 µg/mL) | 25 to 50 µM (≈ 7.58 to 15.2 µg/mL) | weakly susceptible | 22.5 ± 2.5 µM (≈ 6.82 µg/mL) | 22.5 ± 2.5 µM (≈ 6.82 µg/mL) | 40 ± 10 µM (≈ 12.1 µg/mL) | – | 20 ± 1 µM (≈ 6.06 µg/mL) | –
3 | COc1cccc(OC)c1C(=O)N[C@@H]1C(=O)N2[C@@H]1SC(C)(C)[C@@H]2C(=O)O [methicillin, reference compound] | – | – | – | – | – | – | – | – | – | – | 39 mm

— patent publication US8227616B2, “Cyanopyridine antibacterial agents and methods of use thereof” (Wisconsin Alumni Research Foundation, priority 2006, dated 2012)
